One assay deals with T1, USP22 (Mus musculus, UniProt Q5DU02).
T1 construct: endogenous in cells; probably murine iTreg
T1 sequence (Q5DU02 1-525): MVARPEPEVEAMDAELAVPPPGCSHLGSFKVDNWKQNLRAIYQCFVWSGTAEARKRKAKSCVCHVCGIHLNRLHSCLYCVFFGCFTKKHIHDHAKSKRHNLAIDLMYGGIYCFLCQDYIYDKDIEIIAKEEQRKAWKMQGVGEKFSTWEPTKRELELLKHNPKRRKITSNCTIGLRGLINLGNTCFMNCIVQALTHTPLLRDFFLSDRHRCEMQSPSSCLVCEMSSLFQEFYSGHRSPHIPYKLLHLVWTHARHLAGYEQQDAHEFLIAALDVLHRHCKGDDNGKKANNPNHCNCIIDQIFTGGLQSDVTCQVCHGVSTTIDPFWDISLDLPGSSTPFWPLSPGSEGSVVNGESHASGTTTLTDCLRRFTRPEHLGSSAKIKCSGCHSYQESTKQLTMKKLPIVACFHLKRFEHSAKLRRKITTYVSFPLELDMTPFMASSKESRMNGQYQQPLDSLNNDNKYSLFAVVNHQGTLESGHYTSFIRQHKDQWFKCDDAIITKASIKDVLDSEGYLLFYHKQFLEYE
T1 sequence (A2AWT3 1-347 partner): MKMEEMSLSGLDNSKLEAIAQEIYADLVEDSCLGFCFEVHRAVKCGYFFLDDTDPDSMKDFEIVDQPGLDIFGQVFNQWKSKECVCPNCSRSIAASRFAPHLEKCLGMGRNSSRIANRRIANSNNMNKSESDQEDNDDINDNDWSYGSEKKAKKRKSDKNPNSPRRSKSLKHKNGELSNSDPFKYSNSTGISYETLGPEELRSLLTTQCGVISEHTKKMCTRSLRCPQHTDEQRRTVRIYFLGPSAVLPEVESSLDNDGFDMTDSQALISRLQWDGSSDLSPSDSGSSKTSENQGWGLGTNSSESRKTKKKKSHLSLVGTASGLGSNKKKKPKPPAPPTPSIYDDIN
T1 sequence (Q9JIX0 1-101 partner): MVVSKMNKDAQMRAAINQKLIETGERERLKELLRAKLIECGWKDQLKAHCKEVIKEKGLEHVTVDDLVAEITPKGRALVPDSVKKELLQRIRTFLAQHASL
The assay can be described thus: Biological screening of the 25 chemicals, FOXP3 MFI reduction as readout. The class given is cell-based. To be noted: biological validation of the 25 chemicals. An excerpt:
We then used both Lipinski's Rule and Veber's Rule to filter through the Specs database and found a total of 240K compounds binding to the catalytic pocket of our Usp22 model. We then filtered the top 100 compounds ranked by docking affinity by MD and MM/PBSA methods and were left with 25 compounds (Table 1). This limited number of compounds allowed us for further biological screening. As USP22 suppression leads to dramatic reduction in FOXP3 expression levels, we utilized FOXP3 MFI reduction as a readout for the biological validation of USP22 inhibitory efficacy by each of the 25 chemicals. […] The compound S02, structure shown in FIG. 6A, bound stably in the USP22 catalytic domain pocket shown by the RMSD trajectory (FIG. 14E) with strong binding energies to our USP22-md model (FIG. 14F). […] Therefore, future generations of Usp22 inhibitors should take into considerations not only the hydrophobic residues, but also the interaction between the inhibitor and the charged and polar residues on the surface of the binding pocket.

A further assay has as its system LLC1 cells. The assay can be described thus: LLC1 cells in vitro: counts, viability, growth. The class given is cell-based. The protocol:
(§1) FIG. 17: Usp22i-S02 inhibits tumor growth in vitro and in vivo. A, In vitro counts of LLC1 after treatment with Usp22i-S02 under various concentrations for 24 hours (n=2). B, In vitro viability of LLC1 after treatment with Usp22i-S02 under various concentrations for 24 hours (n=2). C, In vitro relative growth of LLC1 cells treated with 10 ug/ml of Usp22i-S02 relative to DMSO treated control for 7 days via OD600 (n=4). D, Growth curve of 1 million subcutaneously injected LLC1 cells into RAG−/− mice treated for 3 days Usp22i-S02 relative to DMSO control injections at day 15 of tumor growth (n=4). C-D, Two-way ANOVA with Sidaks's multiple comparisons between rows relative to control was performed to determine statistical significance. All data are presented as mean±stdev. NS, not significant. *P<0.05, **P<0.01, ***P<0.001, ****P<0.0001.
(§2) As Usp22 is also an important oncogene (43, 44), we were interested in the potential dual-therapeutic function of Usp22i-S02.

The test system of the next assay is LLC1 tumors. The experiment in a line: Established LLC1 tumors in Rag−/− mice. The class given is in vivo. To be noted: Rag−/− mice with established LLC1 tumors, treated 3 days. The procedure:
as §1, §2

These results are taken from patent US20240238274A1, “INHIBITORS OF UBIQUITIN SPECIFIC PEPTIDASE 22 (USP22) AND USES THEREOF FOR TREATING DISEASE AND DISORDERS” (Northwestern University, priority 2021, published 2024).

With `N#Cc1c2c(c(Nc3ccccc3)n3c1nc1ccccc13)CCCC2` [Chemical S02, 11-anilino-7,8,9,10-tetrahydro-benzimidazo [1,2-b] isoquinoline-6-carbonitrile], the “efficacy in downregulating FOXP3 expression” value at USP22 was “strong efficacy in downregulating FOXP3 expression”. Also, the “tumor cell counts, viability and growth” value with LLC1 cells was “decreased tumor cell counts, viability, and growth”. The tumor growth entry with LLC1 tumors is given as “small but statistically significant decrease in tumor growth”.
